This is an account of results in patent US8461176B2, “Enantiomerically enriched aryloazol-2-yl cyanoethylamino compounds, method of making and method of using thereof” (Merial Limited, priority 2008, dated 2013).

Molecules are shown by their SMILES.

For orientation: inhibition means the percentage by which the read-out fell short of the control. A higher inhibition goes with strong suppression.

The first assay deals with Haemonchus contortus. The assay is described as follows: Method A: screening of activity against Haemonchus contortus L1 larvae in microtitre plate (development to L3 / motility). The following applies: Haemonchus contortus, 96 h; test concentration 0.0025 ppm; 4 days assessment. The source says: Method A: Screening Method to Test Activity of Compounds Against Haemonchus contortus.
In turn, `CC(C#N)(Cn1cc2c(Cl)cc(Cl)c(Cl)c2n1)NC(=O)c1ccc(C#N)cc1` (stereo not drawn) [Compound 2.063, N-[1-Cyano-1-methyl-2-(4,6,7-trichloro-2H-indazol-2-yl)ethyl]-4-cyanobenzamide] yielded an inhibition at 0.0025 ppm of no less than 90%.

On to `CC(C#N)(Cn1nc2c(Cl)cc(Cl)c(Cl)c2n1)NC(=O)c1ccc(C(F)(F)F)cc1` (stereo not drawn) [Compound 1.101, N-[1-Cyano-1-methyl-2-(4,5,7-trichloro-2H-benzotriazol-2-yl)-ethyl]-4-trifluoromethylbenzamide], for which the inhibition at 0.0025 ppm is no less than 90%.

Take `CC(C#N)(Cn1cc2c(Cl)cc(Cl)c(Cl)c2n1)NC(=O)c1ccc(Cl)cc1` (stereo not drawn) [Compound 2.061, N-[1-Cyano-1-methyl-2-(4,6,7-trichloro-2H-indazol-2-yl)ethyl]-4-chlorobenzamide]: the inhibition at 0.0025 ppm is no less than 90%.

Consider `CC(C#N)(Cn1cc2ncc(I)cc2n1)NC(=O)c1ccc(OC(F)(F)F)cc1` (stereo not drawn) [Compound 3.026, N-[1-Cyano-2-(6-iodo-2H-pyrazolo[4,3-b]pyridin-2-yl)-1-methylethyl]-4-trifluoromethoxybenzamide], for which the inhibition at 0.0025 ppm was no less than 90%.

The assay is the same for the next values; noted with them: Haemonchus contortus, 96 h; test concentration 0.01 ppm; 4 days assessment.
With `CC(C#N)(Cn1cc2c(Cl)cc(Cl)c(Cl)c2n1)NC(=O)c1ccc([N+](=O)[O-])cc1` (stereo not drawn) [Compound 2.069, N-[1-Cyano-1-methyl-2-(4,6,7-trichloro-2H-indazol-2-yl)ethyl]-4-nitrobenzamide], the inhibition at 0.01 ppm was no less than 90%.

For `CC(C#N)(Cn1nc2c(Br)cc(Cl)c(Br)c2n1)NC(=O)c1ccc(OC(F)(F)C(F)F)cc1` (stereo not drawn) [Compound 1.099, N-[2-(5-Chloro-4,7-dibromo-2H-benzotriazol-2-yl)-1-cyano-1-methylethyl]-4-(1,1,2,2-tetrafluoroethoxy)benzamide], the inhibition at 0.01 ppm is no less than 90%.

With `CC(C#N)(Cn1cc2c(Cl)cc(Cl)c(Cl)c2n1)NC(=O)c1ccc(C(F)(F)F)cc1F` (stereo not drawn) [Compound 2.187, N-[1-Cyano-1-methyl-2-(4,6,7-trichloro-2H-indazol-2-yl)ethyl]-2-fluoro-4-trifluoromethylbenzamide], the inhibition at 0.01 ppm is no less than 90%.

`CC(C#N)(Cn1nc2c(Br)cc(Cl)c(Br)c2n1)NC(=O)c1ccc(C#N)cc1` (stereo not drawn) [Compound 1.098, N-[2-(5-Chloro-4,7-dibromo-2H-benzotriazol-2-yl)-1-cyano-1-methylethyl]-4-cyanobenzamide] had an inhibition at 0.01 ppm of no less than 90%.

On to `CC(C#N)(Cn1cc2c(Cl)cc(Cl)c(Cl)c2n1)NC(=O)c1ccc(C(F)(F)F)c(F)c1` (stereo not drawn) [Compound 2.190, N-[1-Cyano-1-methyl-2-(4,6,7-trichloro-2H-indazol-2-yl)ethyl]-3-fluoro-4-trifluoromethylbenzamide], for which the inhibition at 0.01 ppm is no less than 90%.

The same assay, now with this note: Haemonchus contortus, 96 h; test concentration 0.04 ppm; 4 days assessment.
Molecule `CC(C#N)(Cn1cc2ncc(Br)cc2n1)NC(=O)c1ccc(OC(F)(F)F)cc1F` (stereo not drawn) [Compound 3.056, N-[2-(6-Bromo-2H-pyrazolo[4,3-b]pyridin-2-yl)-1-cyano-1-methylethyl]-2-fluoro-4-trifluoromethoxybenzamide] had an inhibition at 0.04 ppm of no less than 90%.

`CC(C#N)(Cn1nc2c(Cl)cc(Cl)c(Cl)c2n1)NC(=O)c1ccc(C(F)(F)F)cc1F` (stereo not drawn) [Compound 1.143, N-[1-Cyano-1-methyl-2-(4,5,7-trichloro-2H-benzotriazol-2-yl)-ethyl]-2-fluoro-4-trifluoromethylbenzamide] returned an inhibition at 0.04 ppm of no less than 90%.

In turn, `CC(C#N)(Cn1cc2ncc(Br)cc2n1)NC(=O)c1ccc(C(F)(F)F)cc1` (stereo not drawn) [Compound 3.047, N-[2-(6-Bromo-2H-pyrazolo[4,3-b]pyridin-2-yl)-1-cyano-1-methylethyl]-4-trifluoromethylbenzamide] gave an inhibition at 0.04 ppm of no less than 90%.

In turn, `CC(C#N)(Cn1nc2c(Cl)cc(Cl)c(Cl)c2n1)NC(=O)c1ccc(C#N)cc1` (stereo not drawn) [Compound 1.102, N-[1-Cyano-1-methyl-2-(4,5,7-trichloro-2H-benzotriazol-2-yl)-ethyl]-4-cyanobenzamide] showed an inhibition at 0.04 ppm of no less than 90%.

For the molecule `CC(C#N)(Cn1cc2c(Cl)cc(Cl)c(Cl)c2n1)NC(=O)c1ccc(Cl)cc1Cl` (stereo not drawn) [Compound 2.230, 2,4-Dichloro-N-[1-cyano-1-methyl-2-(4,6,7-trichloro-2H-indazol-2-yl)ethyl]benzamide], the inhibition at 0.04 ppm is no less than 90%.

The assay is the same for the next values; noted with them: Haemonchus contortus, 96 h; test concentration 0.15 ppm; 4 days assessment.
`CC(C#N)(Cn1cc2ncc(Br)cc2n1)NC(=O)c1ccc(Cl)cc1` (stereo not drawn) [Compound 3.046, N-[2-(6-Bromo-2H-pyrazolo[4,3-b]pyridin-2-yl)-1-cyano-1-methylethyl]-4-chlorobenzamide] had an inhibition at 0.15 ppm of no less than 90%.

In turn, `C=Cc1cc(Cl)cc2nn(CC(C)(C#N)NC(=O)c3ccc(OC(F)(F)F)cc3)nc12` (stereo not drawn) [Compound 1.075, N-[2-(6-Chloro-4-vinyl-2H-benzotriazol-2-yl)-1-cyano-1-methylethyl]-4-trifluoromethoxybenzamide] yielded an inhibition at 0.15 ppm of no less than 90%.

`CC(C#N)(Cn1nc2c(Cl)cc(Cl)c(Cl)c2n1)NC(=O)c1ccc(C(F)(F)F)c(F)c1` (stereo not drawn) [Compound 1.146, N-[1-Cyano-1-methyl-2-(4,5,7-trichloro-2H-benzotriazol-2-yl)-ethyl]-3-fluoro-4-trifluoromethylbenzamide] gave an inhibition at 0.15 ppm of no less than 90%.

`CCOc1c2ccc(Cl)cc2nn1CC(C)(C#N)NC(=O)c1ccc(OC(F)(F)F)cc1` (stereo not drawn) [Compound 2.027, N-[2-(6-Chloro-3-ethoxy-2H-indazol-2-yl)-1-cyano-1-methylethyl]-4-trifluoromethoxybenzamide] displayed an inhibition at 0.15 ppm of no less than 90%.

In turn, `COc1c2ccccc2nn1CC(C)(C#N)NC(=O)c1ccc(OC(F)(F)F)cc1` (stereo not drawn) [Compound 2.016, N-[1-Cyano-2-(3-methoxy-2H-indazol-2-yl)-1-methylethyl]-4-trifluoromethoxybenzamide] displayed an inhibition at 0.15 ppm of no less than 90%.

In turn, `CC(C#N)(Cn1cc2ncc(Br)cc2n1)NC(=O)c1ccc(-c2ccccc2)cc1` (stereo not drawn) [Compound 3.050, N-[2-(6-Bromo-2H-pyrazolo[4,3-b]pyridin-2-yl)-1-cyano-1-methylethyl]-biphenyl-4-carboxamide] had an inhibition at 0.15 ppm of no less than 90%.

The same assay, now with this note: Haemonchus contortus, 96 h; test concentration 0.3 ppm; 4 days assessment.
Molecule `CC(C#N)(Cn1nc2c(Cl)cc(Cl)c(Cl)c2n1)NC(=O)c1ccc(OC(F)(F)F)cc1` (single isomer, unassigned; (-)) [Compound 1.097, (−)-N-[1-Cyano-1-methyl-2-(4,5,7-trichloro-2H-benzotriazol-2-yl)-ethyl]-4-trifluoromethoxybenzamide] came in with an inhibition at 0.3 ppm of less than 90%.

Still in this assay, the particulars now being: Haemonchus contortus, 96 h; test concentration 0.6 ppm; 4 days assessment.
The molecule `CC(C#N)(Cn1cc2cc(Br)cnc2n1)NC(=O)c1ccc(OC(F)(F)F)cc1` (stereo not drawn) [Compound 5.001, N-[2-(5-Bromo-2H-pyrazolo[3,4-b]pyridin-2-yl)-1-cyano-1-methylethyl]-4-trifluoromethoxybenzamide] displayed an inhibition at 0.6 ppm of no less than 90%.

Molecule `CC(C#N)(Cn1nc2cc(Cl)c(Cl)cc2n1)NC(=O)c1ccc(OC(F)(F)F)cc1` (stereo not drawn) [Compound 1.010, N-[1-Cyano-2-(5,6-dichloro-2H-benzotriazol-2-yl)-1-methylethyl]-4-trifluoromethoxybenzamide] showed an inhibition at 0.6 ppm of no less than 90%.

Consider `CCCCOc1c2ccc(Cl)cc2nn1CC(C)(C#N)NC(=O)c1ccc(OC(F)(F)F)cc1` (stereo not drawn) [Compound 2.031, N-[2-(6-Chloro-3-butoxy-2H-indazol-2-yl)-1-cyano-1-methylethyl]-4-trifluoromethoxybenzamide], for which the inhibition at 0.6 ppm is no less than 90%.
